Measurements reported in ChEMBL document CHEMBL1641588, “3-[Benzimidazo- and 3-[benzothiadiazoleimidazo-(1,2-c)quinazolin-5-yl]-2H-chromene-2-ones as potent antimicrobial agents” (2011).
Values after ≈ are worked out from the molar mass of the structure shown.

Key:
Candida albicans [1] = assay: Antifungal activity against Candida albicans by liquid dilution method; format: functional
Candida albicans [2] = assay: Antifungal activity against Candida albicans at 1000 ug/mL after 72 hrs by agar diffusion assay; format: functional; conditions: read-out: IZ
Aspergillus niger [3] = assay: Antifungal activity against Aspergillus niger at 1000 ug/mL after 72 hrs by agar diffusion assay; format: functional; conditions: read-out: IZ
Aspergillus flavus [4] = assay: Antifungal activity against Aspergillus flavus at 1000 ug/mL after 72 hrs by agar diffusion assay; format: functional; conditions: read-out: IZ
Aspergillus flavus [5] = assay: Antifungal activity against Aspergillus flavus by liquid dilution method; format: functional
Aspergillus niger [6] = assay: Antifungal activity against Aspergillus niger by liquid dilution method; format: functional
Streptococcus pyogenes [7] = assay: Antibacterial activity against Streptococcus pyogenes at 1000 ug/mL after 72 hrs by agar diffusion assay; format: functional; conditions: read-out: IZ
Bacillus subtilis [8] = assay: Antibacterial activity against Bacillus subtilis at 1000 ug/mL after 72 hrs by agar diffusion assay; format: functional; conditions: read-out: IZ
Streptococcus pyogenes [9] = assay: Antibacterial activity against Streptococcus pyogenes by liquid dilution method; format: functional
Escherichia coli [10] = assay: Antibacterial activity against Escherichia coli by liquid dilution method; format: functional
Salmonella typhimurium [11] = assay: Antibacterial activity against Salmonella Typhimurium by liquid dilution method; format: functional, Salmonella enterica subsp. enterica serovar Typhimurium; conditions: Salmonella enterica
Bacillus subtilis [12] = assay: Antibacterial activity against Bacillus subtilis by liquid dilution method; format: functional
Klebsiella pneumoniae [13] = assay: Antibacterial activity against Klebsiella pneumoniae by liquid dilution method; format: functional
Klebsiella pneumoniae [14] = assay: Antibacterial activity against Klebsiella pneumoniae at 1000 ug/mL after 72 hrs by agar diffusion assay; format: functional; conditions: read-out: IZ
Salmonella typhimurium [15] = assay: Antibacterial activity against Salmonella Typhimurium at 1000 ug/mL after 72 hrs by agar diffusion assay; format: functional, Salmonella enterica subsp. enterica serovar Typhimurium; conditions: Salmonella enterica, read-out: IZ
Staphylococcus aureus [16] = assay: Antibacterial activity against Staphylococcus aureus at 1000 ug/mL after 72 hrs by agar diffusion assay; format: functional; conditions: read-out: IZ
Escherichia coli [17] = assay: Antibacterial activity against Escherichia coli at 1000 ug/mL after 72 hrs by agar diffusion assay; format: functional; conditions: read-out: IZ
Staphylococcus aureus [18] = assay: Antibacterial activity against Staphylococcus aureus by liquid dilution method; format: functional

SMILES	MIC (Candida albicans [1]) [µg/mL]	MIC (Aspergillus flavus [5]) [µg/mL]	MIC (Aspergillus niger [6]) [µg/mL]	MIC (Streptococcus pyogenes [9]) [µg/mL]	MIC (Escherichia coli [10]) [µg/mL]	MIC (Salmonella typhimurium [11]) [µg/mL]	MIC (Bacillus subtilis [12]) [µg/mL]	MIC (Klebsiella pneumoniae [13]) [µg/mL]	MIC (Staphylococcus aureus [18]) [µg/mL]	zone of inhibition at 1000 µg/mL (Candida albicans [2]) [mm]	zone of inhibition at 1000 µg/mL (Aspergillus niger [3]) [mm]	zone of inhibition at 1000 µg/mL (Aspergillus flavus [4]) [mm]	zone of inhibition at 1000 µg/mL (Streptococcus pyogenes [7]) [mm]	zone of inhibition at 1000 µg/mL (Bacillus subtilis [8]) [mm]	zone of inhibition at 1000 µg/mL (Klebsiella pneumoniae [14]) [mm]	zone of inhibition at 1000 µg/mL (Salmonella typhimurium [15]) [mm]	zone of inhibition at 1000 µg/mL (Staphylococcus aureus [16]) [mm]	zone of inhibition at 1000 µg/mL (Escherichia coli [17]) [mm]
CC(=O)N1CCN(c2ccc(OCC3COC(Cn4ccnc4)(c4ccc(Cl)cc4Cl)O3)cc2)CC1 (stereo not drawn) [KETOCONAZOLE]	25 (≈ 47 µM)	15 (≈ 28.2 µM)	15 (≈ 28.2 µM)							40	45	43						
O=c1oc2c(Br)cc(Br)cc2cc1-c1nc2ccccc2c2nc3ccccc3n12	15 (≈ 28.8 µM)	15 (≈ 28.8 µM)	20 (≈ 38.4 µM)	20 (≈ 38.4 µM)	15 (≈ 28.8 µM)	30 (≈ 57.6 µM)	50 (≈ 95.9 µM)	35 (≈ 67.2 µM)	40 (≈ 76.8 µM)	41	48	46	36	34	38	36	39	41
O=c1oc2c(Br)cc(Br)cc2cc1-c1nc2ccccc2c2nc3c4nsnc4ccc3n12	40 (≈ 69.1 µM)	35 (≈ 60.4 µM)	25 (≈ 43.2 µM)	15 (≈ 25.9 µM)	10 (≈ 17.3 µM)	2.5 (≈ 4.32 µM)	10 (≈ 17.3 µM)	5 (≈ 8.63 µM)	5 (≈ 8.63 µM)	32	34	37	37	41	46	45	48	42
CC1(C)S[C@@H]2[C@H](NC(=O)[C@H](N)c3ccccc3)C(=O)N2[C@H]1C(=O)O [AMPICILLIN]				25 (≈ 71.5 µM)	15 (≈ 42.9 µM)	10 (≈ 28.6 µM)	20 (≈ 57.2 µM)	10 (≈ 28.6 µM)	10 (≈ 28.6 µM)				35	39	45	45	48	40

Further lines, with some results ahead:

MIC (Candida albicans [1]) [µg/mL]	MIC (Aspergillus flavus [5]) [µg/mL]	MIC (Aspergillus niger [6]) [µg/mL]	MIC (Streptococcus pyogenes [9]) [µg/mL]	MIC (Escherichia coli [10]) [µg/mL]	MIC (Salmonella typhimurium [11]) [µg/mL]	MIC (Bacillus subtilis [12]) [µg/mL]	MIC (Klebsiella pneumoniae [13]) [µg/mL]	MIC (Staphylococcus aureus [18]) [µg/mL]	SMILES	zone of inhibition at 1000 µg/mL (Candida albicans [2]) [mm]	zone of inhibition at 1000 µg/mL (Aspergillus niger [3]) [mm]	zone of inhibition at 1000 µg/mL (Aspergillus flavus [4]) [mm]	zone of inhibition at 1000 µg/mL (Streptococcus pyogenes [7]) [mm]	zone of inhibition at 1000 µg/mL (Bacillus subtilis [8]) [mm]	zone of inhibition at 1000 µg/mL (Klebsiella pneumoniae [14]) [mm]	zone of inhibition at 1000 µg/mL (Salmonella typhimurium [15]) [mm]	zone of inhibition at 1000 µg/mL (Staphylococcus aureus [16]) [mm]	zone of inhibition at 1000 µg/mL (Escherichia coli [17]) [mm]
45 (≈ 107 µM)	35 (≈ 83 µM)	40 (≈ 94.9 µM)	45 (≈ 107 µM)	45 (≈ 107 µM)	30 (≈ 71.2 µM)	50 (≈ 119 µM)	35 (≈ 83 µM)	50 (≈ 119 µM)	O=c1oc2ccccc2cc1-c1nc2ccccc2c2nc3c4nsnc4ccc3n12	26	22	35	22	32	27	24	31	26
45 (≈ 119 µM)	35 (≈ 92.7 µM)	50 (≈ 132 µM)	45 (≈ 119 µM)	40 (≈ 106 µM)	20 (≈ 53 µM)	45 (≈ 119 µM)	30 (≈ 79.5 µM)	30 (≈ 79.5 µM)	Cc1cccc2cc(-c3nc4ccccc4c4nc5ccccc5n34)c(=O)oc12	32	27	35	24	30	31	35	32	32
35 (≈ 96.3 µM)	40 (≈ 110 µM)	25 (≈ 68.8 µM)	30 (≈ 82.6 µM)	25 (≈ 68.8 µM)	25 (≈ 68.8 µM)	45 (≈ 124 µM)	30 (≈ 82.6 µM)	35 (≈ 96.3 µM)	O=c1oc2ccccc2cc1-c1nc2ccccc2c2nc3ccccc3n12	27	34	32	23	31	34	32	36	38
